Laboratory results as given in patent US20200270309A1, “MALEIMIDE GROUP-MODIFIED ANGIOGENESIS INHIBITOR HM-1 AND USE THEREOF” (NANJING ANJI BIOLOGICAL TECHNOLOGY CO., LTD, priority 2017, published 2020).
Marks after values point to notes of the source that are not given here.

Assays:
[1] = test system: xylene-induced ear swelling; assay: Xylene-induced mouse ear swelling; assay type: in vivo; details: Kunming mice, positive control, dose 200 mg/kg, once a day for 5 days
Method: Kunming mice were taken, a normal saline group was taken as a blank control group, an aspirin group (200 mg/kg) was taken as a positive control group, and X1-X90 administration groups were taken as test groups. The mice were injected once a day for 5 consecutive days. The blank control group was given an equal volume of normal saline. One hour after the last administration, 0.05 mL of xylene was applied to both sides of the right ear of each mouse to cause inflammation, while no drug was applied to the left ear as a normal ear. Two hours later, the mice were put to death by dislocation. Two ears were cut along the auricle. Ear pieces were taken with a puncher and weighed, and the swelling degree and the swelling rate were calculated. Swelling degree=right ear piece weight-left ear piece weight, swelling rate=(swelling degree/left ear piece weight)*100%. Statistical t-test was conducted on the experimental results. *P<0.05 indicates significant difference, and **P<0.01 indicates extremely significant difference.

[2] = test system: IL-1β production by mouse peritoneal macrophages; assay: IL-1β production by mouse peritoneal macrophages (ELISA); assay type: cell-based; details: dose 20 μM
Method: Mice were injected intraperitoneally with 1 mL of broth culture medium (containing 6% of starch). Three days later, mice peritoneal macrophages were taken aseptically and washed twice with 1640 culture medium, and the cell concentration was adjusted to 2×10^6 cells/mL. The solutions were injected into 24-well culture plates at 1 mL per well. The cells were incubated in a cell incubator for 3 h and vibrated once every 30 min to make the cells fully adhere to the wall. Then, the cells were washed twice with a culture solution to remove non-adhered cells. PBS was added to the blank group, positive drug Dex was added to the positive group, no drug was added to the model group, and polypeptides X1-X90 with low, medium and high concentrations were added to the test groups; and the cells were continuously cultured for 48 h after administration, and then centrifuged at 1000 r/min for 15 min. The supernatant was collected as a sample to be tested for IL-1β activity.

[3] = test system: carrageenan-induced toe swelling; assay: Carrageenan-induced toe swelling in rats; assay type: in vivo; details: SD rats, Dex 10 mg/kg once a day for 3 d
Method: The rats were injected once a day, and the model group was given the same volume of normal saline for 3 d and fed normally. […] The foot swelling degree was calculated according to the following formula: foot swelling degree (mL)=foot volume after inflammation-foot volume before inflammation. The number of milliliters of overflow liquid was recorded (method: a ballpoint pen is used to circle the protruding point of the right joint as a measurement mark, and the right hind feet of each rat are sequentially placed into the volume measurer, so that the hind limbs are exposed outside the barrel, and the immersion depth is at the coincidence of the circle and the liquid level. After the foot enters the liquid, the liquid level rises, and the volume of overflow liquid is the volume of the right hind foot of the rat, and the normal volume of the right hind foot of each rat is measured in sequence).

[4] = test system: splenic lymphocytes; assay: Proliferation of splenic lymphocytes in mice (ConA, MTT); assay type: cell-based; details: dose 20 μM (Dex group), mouse splenic lymphocytes, 48 h
Method: Spleens of mice were taken out under aseptic conditions, washed with blank 1640 culture medium 3 times, ground with a 5 mL syringe core, filtered with a 200-mesh sieve, made into a single cell suspension. The suspension was centrifuged (1000 rpm×5 min), and supernatant was removed. Red blood cells were lysed by Tris-NH4Cl, and placed in ice water bath for 4 min and centrifuged (1000 rpm×5 min). The supernatant was removed, and the cells were washed twice with sterile PBS. Finally, RPMI 1640 culture solution (5 mL) containing 10% calf serum was added to suspend the cells. The cells were counted and the cell concentration was adjusted to 5×10^6 cells/mL, and the cells were cultured in a 96-well culture plate.
Blank control group, concanavalin A (ConA) group and dexamethasone (Dex) group were set in the experiment, and polypeptide X1-X90 groups were set as test groups. After 100 μL of splenic lymphocytes suspension per well was added into each group, 100 μL of blank 1640 culture solution was added into the blank control group, ConA was added into the ConA group, Dex was added into the Dex group, and ConA was added into the test groups on the basis of adding different concentrations of polypeptides X1-X90. The cells were static cultured at 37° C. in a cell incubator for 48 h. After the cultivation was completed, 20 μL of MTT was added to each well, and the cultivation was continued for 4 h. Finally, all the solutions in each well were discarded. 100 μL DMSO was added to each well and shaken, and the OD value at 570 nm was detected with a microplate reader. Five parallel experiments were set in each well.

[5] = test system: Head and neck cancers tumor cell line; assay: MTT proliferation inhibition, head and neck cancers; assay type: cell-based, human; details: 48 h, mean ±SD
[6] = test system: Esophageal cancer tumor cell line; assay: MTT proliferation inhibition, esophageal cancer; assay type: cell-based, human; details: 48 h, mean ±SD
[7] = test system: Thyroid cancer tumor cell line; assay: MTT proliferation inhibition, thyroid cancer; assay type: cell-based, human; details: 48 h, mean ±SD
[8] = test system: Brain tumor cell line; assay: MTT proliferation inhibition, brain tumor; assay type: cell-based, human; details: 48 h, mean ±SD
[9] = test system: Pancreatic cancer tumor cell line; assay: MTT proliferation inhibition, pancreatic cancer; assay type: cell-based, human; details: 48 h, mean ±SD
[10] = test system: HUVECs; assay: Transwell migration inhibition on HUVECs; assay type: cell-based, human; details: dose 0.2 μM
[11] = test system: human retinal capillary endothelial cells (HRCECs); assay: MTT proliferation inhibition on HRCECs; assay type: cell-based; details: 48 h, dose 0.5 μM (positive control)
Method: An MTT method was used to detect the inhibitory activity of the angiogenesis inhibitor polypeptide on proliferation of HRCECs. HRCECs were digested and collected with trypsin after being cultured in an incubator at 37° C. with 5% CO2 to a density of 90% or more. The cells were resuspended with a culture solution and counted under a microscope, the cell concentration was adjusted to 3.0×10^4 cells/mL, and the cell suspension was inoculated into a 96-well plate at 100 μL/well, and cultured overnight in an incubator at 37° C. with 5% CO2. After the cells were completely adhered to the wall, cells with the addition of the angiogenesis inhibitor polypeptide were used as administration groups, cells with the addition of Avastin were used as a positive control group, and cells with the addition of culture solution without any drugs were used as a blank control group. The cells were diluted to respective predetermined concentrations with the culture solution. The diluent were added into 96-well plates respectively at 100 μL per well, and the cells were cultured at 37° C. for 48 h in an incubator with 5% CO2. 20 μL of 5 mg/mL MTT was added into each well of the 96-well plate, and the cultivation was continued for 4 h. The culture medium was removed, and 100 μL of DMSO was added to each well for dissolution. The absorbance was measured at a detection wavelength of 570 nm and a reference wavelength of 630 nm using a microplate reader, and the PIR was calculated by the formula as follows:
PIR (%)=1−administration group/negative group
The experiment was repeated independently three times. The results were expressed as mean±SD, and statistical T test was conducted. *P<0.05 indicates significant difference, and **P<0.01 indicates extremely significant difference.

CC(=O)Oc1ccccc1C(=O)O [Aspirin]
Swelling degree (mg) [1]: 3.08 ± 0.31** mg | inhibition at 200 mg/kg ([1]; Mus musculus, 120 h, read-out: Inhibition rate (%)): 51%

C[C@@H]1C[C@H]2[C@@H]3CCC4=CC(=O)C=C[C@]4(C)[C@@]3(F)[C@@H](O)C[C@]2(C)[C@@]1(O)C(=O)CO [Dex]
Inhibition rate ([2]; IL-1β production, vs model group): 62.95% | IL-1β ([2]; mouse peritoneal macrophages, 48 h, ELISA): 352.06 ± 17.29 pg/mL | Swelling degree 1 h ([3]; 1 h after carrageenan): 0.22 ± 0.10 mg | Swelling degree 3 h ([3]; 3 h after carrageenan): 0.24 ± 0.11 mg | Swelling degree 5 h ([3]; 5 h after carrageenan): 0.29 ± 0.11 mg | Swelling degree 7 h ([3]; 7 h after carrageenan): 0.23 ± 0.08 mg | A570 nm/A630 nm [4]: 0.3918 ± 0.1127 | Inhibition rate (%) [4]: 52.65%

CC(=O)O[C@@]12CO[C@@H]1C[C@H](O)[C@@]1(C)C(=O)[C@H](O)C3=C(C)[C@@H](OC(=O)[C@H](O)[C@@H](NC(=O)OC(C)(C)C)c4ccccc4)C[C@@](O)([C@@H](OC(=O)c4ccccc4)[C@H]21)C3(C)C [Docetaxel]
PIR (%) [5]: 55.66% | PIR (%) [6]: 53.43% | PIR (%) [7]: 73.75% | PIR (%) [8]: 70.69% | PIR (%) [9]: 45.92%

Avastin: positive control [reference compound]
Inhibition rate (%) ([10]; HUVEC migration vs blank control): 60.92% | Cell migration number (Mean ± SD) ([10]; HUVECs, transwell, 24 h): 418.92 ± 61.42 | Cell migration number (Mean ± SD) ([10]; 24 h): 418.92 ± 61.42 | Inhibition rate (migration) ([10]; 24 h): 60.92% | Inhibition rate (%) [11]: 67.30%** | A570 nm-A630 nm ([11]; mean±SD): 0.4325 ± 0.01108
